This note sets out measurements from US10301280B2 (Plexxikon Inc., priority 2012, dated 2019).

c-kit mutant D816V, sequence (P10721 other isoform, or with tags, fused parts or gaps D816V/del 694-753): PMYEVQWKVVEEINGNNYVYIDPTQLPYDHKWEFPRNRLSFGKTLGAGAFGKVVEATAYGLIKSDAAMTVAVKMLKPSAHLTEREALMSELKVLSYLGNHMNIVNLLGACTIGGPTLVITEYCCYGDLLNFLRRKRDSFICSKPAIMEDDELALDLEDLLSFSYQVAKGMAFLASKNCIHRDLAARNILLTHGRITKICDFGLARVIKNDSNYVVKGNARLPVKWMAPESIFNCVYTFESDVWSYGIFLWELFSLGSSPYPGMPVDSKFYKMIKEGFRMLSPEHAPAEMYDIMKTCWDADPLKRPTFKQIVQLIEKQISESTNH

The target in the test is c-kit mutant D816V (Homo sapiens (Human), UniProt P10721, D816V/DEL694-753). In words: c-Kit mutant D816V biochemical assay (AlphaScreen). Conditions: c-kit D816V biochemical inhibitory activity. Put shortly:
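His-tagged c-Kit D816V kinase domain (551-934, Δ694-753, E. coli) phosphorylating 30 nM biotin-(E4Y)10 at 10 μM ATP in HEPES pH 7.2 with Mg/Mn, 5% DMSO, 30 min at room temperature. PY20-acceptor/streptavidin-donor AlphaScreen detection after EDTA stop. IC50 from 8-point 1:3 titration.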
`Cc1n[nH]c(C(=O)Nc2cnc3[nH]c(-c4cnc(N5CCN(C)CC5)nc4)cc3c2)c1C` [P-2160, 3,4-dimethyl-N-[2-[2-(4-methylpiperazin-1-yl)pyrimidin-5-yl]-1H-pyrrolo[2,3-b]pyridin-5-yl]-1H-pyrazole-5-carboxamide] gave an IC50 of 0.0001 to 1 µM.

As for `Cc1n[nH]c(C(=O)Nc2cnc3[nH]nc(-c4cccc(N5CCN(C(=O)OC(C)(C)C)CC5)c4)c3c2)c1C` [P-2162, tert-butyl 4-[3-[5-[(3,4-dimethyl-1H-pyrazole-5-carbonyl)amino]-1H-pyrazolo[3,4-b]pyridin-3-yl]phenyl]piperazine-1-carboxylate], the IC50 lay in the range of 1 to 10 µM.

The molecule `Cc1n[nH]c(C(=O)Nc2cnc3[nH]c(-c4ccnc(C(C)C)c4)cc3c2)c1C` [P-2163, N-[2-(2-isopropyl-4-pyridyl)-1H-pyrrolo[2,3-b]pyridin-5-yl]-3,4-dimethyl-1H-pyrazole-5-carboxamide] had an IC50 of 0.0001 to 1 µM.

For `[2H]c1c([2H])c([2H])c(-c2cc3cc(NC(=O)c4[nH]nc(C)c4C)cnc3[nH]2)c([2H])c1[2H]` [P-2164, 3,4-dimethyl-N-[2-(2,3,4,5,6-pentadeuteriophenyl)-1H-pyrrolo[2,3-b]pyridin-5-yl]-1H-pyrazole-5-carboxamide], the IC50 fell in the range of 0.0001 to 1 µM.

For the molecule `Cc1n[nH]c(C(=O)Nc2cnc3[nH]c(-c4c(C)nn(C)c4C)cc3c2)c1C` [P-2165, 3,4-dimethyl-N-[2-(1,3,5-trimethylpyrazol-4-yl)-1H-pyrrolo[2,3-b]pyridin-5-yl]-1H-pyrazole-5-carboxamide], the IC50 was 1 to 10 µM.

Regarding `Cc1n[nH]c(C(=O)Nc2cnc3[nH]nc(-c4cccc(N5CCNCC5)c4)c3c2)c1C` [P-2166, 3,4-dimethyl-N-[3-(3-piperazin-1-ylphenyl)-1H-pyrazolo[3,4-b]pyridin-5-yl]-1H-pyrazole-5-carboxamide], the IC50 is 0.0001 to 1 µM.

As for `Cc1n[nH]c(C(=O)Nc2cnc3[nH]c(-c4c(C)n[nH]c4C)cc3c2)c1C` [P-2167, N-[2-(3,5-dimethyl-1H-pyrazol-4-yl)-1H-pyrrolo[2,3-b]pyridin-5-yl]-3,4-dimethyl-1H-pyrazole-5-carboxamide], the IC50 was in the range of 0.0001 to 1 µM.

Consider `Cc1nn(C2COC2)cc1-c1cc2cc(NC(=O)c3[nH]nc(C)c3C)cnc2[nH]1` [P-2168, 3,4-dimethyl-N-[2-[3-methyl-1-(oxetan-3-yl)pyrazol-4-yl]-1H-pyrrolo[2,3-b]pyridin-5-yl]-1H-pyrazole-5-carboxamide], for which the IC50 is 0.0001 to 1 µM.

The molecule `Cc1n[nH]c(C(=O)Nc2cnc3[nH]c(-c4ccc(F)c(-c5nn[nH]n5)c4)cc3c2)c1C` [P-2174, N-[2-[4-fluoro-3-(2H-tetrazol-5-yl)phenyl]-1H-pyrrolo[2,3-b]pyridin-5-yl]-3,4-dimethyl-1H-pyrazole-5-carboxamide] registered an IC50 of 0.0001 to 1 µM.

`Cc1n[nH]c(C(=O)Nc2cnc3[nH]c(-c4cccnc4C(F)(F)F)cc3c2)c1C` [P-2176, 3,4-dimethyl-N-[2-[2-(trifluoromethyl)-3-pyridyl]-1H-pyrrolo[2,3-b]pyridin-5-yl]-1H-pyrazole-5-carboxamide] displayed an IC50 of 0.0001 to 1 µM.

The molecule `CCc1cc(-c2cc3cc(NC(=O)c4[nH]nc(C)c4C)cnc3[nH]2)ccn1` [P-2177, N-[2-(2-ethyl-4-pyridyl)-1H-pyrrolo[2,3-b]pyridin-5-yl]-3,4-dimethyl-1H-pyrazole-5-carboxamide] gave an IC50 of 0.0001 to 1 µM.

`CCc1ccc(-c2cc3cc(NC(=O)c4[nH]nc(C)c4C)cnc3[nH]2)cn1` [P-2178, N-[2-(6-ethyl-3-pyridyl)-1H-pyrrolo[2,3-b]pyridin-5-yl]-3,4-dimethyl-1H-pyrazole-5-carboxamide] registered an IC50 of 0.0001 to 1 µM.

Take `Cc1n[nH]c(C(=O)Nc2cnc3[nH]c(-c4ccnc5c4OCCO5)cc3c2)c1C` [P-2179, N-[2-(2,3-dihydro-[1,4]dioxino[2,3-b]pyridin-8-yl)-1H-pyrrolo[2,3-b]pyridin-5-yl]-3,4-dimethyl-H-pyrazole-5-carboxamide]: the IC50 is 0.0001 to 1 µM.

On to `Cc1n[nH]c(C(=O)Nc2cnc3[nH]c(-c4ccccc4C(F)(F)F)cc3c2)c1C` [P-2180, 3,4-dimethyl-N-[2-[2-(trifluoromethyl)phenyl]-1H-pyrrolo[2,3-b]pyridin-5-yl]-1H-pyrazole-5-carboxamide], for which the IC50 fell in the range of 0.0001 to 1 µM.

`Cc1ccc(-c2cc3cc(NC(=O)c4[nH]nc(C)c4C)cnc3[nH]2)c(C)c1` [P-2181, N-[2-(2,4-dimethylphenyl)-1H-pyrrolo[2,3-b]pyridin-5-yl]-3,4-dimethyl-1H-pyrazole-5-carboxamide] returned an IC50 of 0.0001 to 1 µM.

`Cc1n[nH]c(C(=O)Nc2cnc3[nH]c(-c4ccccc4OC(F)(F)F)cc3c2)c1C` [P-2182, 3,4-dimethyl-N-[2-[2-(trifluoromethoxy)phenyl]-1H-pyrrolo[2,3-b]pyridin-5-yl]-1H-pyrazole-5-carboxamide]: the IC50 is 0.0001 to 1 µM.

Turning to `COc1cncc(-c2cc3cc(NC(=O)c4[nH]nc(C)c4C)cnc3[nH]2)c1` [P-2183, N-[2-(5-methoxy-3-pyridyl)-1H-pyrrolo[2,3-b]pyridin-5-yl]-3,4-dimethyl-1H-pyrazole-5-carboxamide], the IC50 was 0.0001 to 1 µM.

Regarding `Cc1cncc(-c2cc3cc(NC(=O)c4[nH]nc(C)c4C)cnc3[nH]2)c1` [P-2184, 3,4-dimethyl-N-[2-(5-methyl-3-pyridyl)-1H-pyrrolo[2,3-b]pyridin-5-yl]-1H-pyrazole-5-carboxamide], the IC50 is 0.0001 to 1 µM.

`Cc1n[nH]c(C(=O)Nc2cnc3[nH]c(-c4ccnc(N5CCN(S(C)(=O)=O)CC5)c4)cc3c2)c1C` [P-2186, 3,4-dimethyl-N-[2-[2-(4-methylsulfonylpiperazin-1-yl)-4-pyridyl]-1H-pyrrolo[2,3-b]pyridin-5-yl]-1H-pyrazole-5-carboxamide] had an IC50 of 0.0001 to 1 µM.

The molecule `Cc1n[nH]c(C(=O)Nc2cnc3[nH]c(-c4ccnc(N5CCN(C(=O)C6CC6)CC5)c4)cc3c2)c1C` [P-2187, N-[2-[2-[4-(cyclopropanecarbonyl)piperazin-1-yl]-4-pyridyl]-1H-pyrrolo[2,3-b]pyridin-5-yl]-3,4-dimethyl-1H-pyrazole-5-carboxamide] showed an IC50 of 0.0001 to 1 µM.

In the case of `Cc1n[nH]c(C(=O)Nc2cnc3[nH]c(-c4ccnc(N5CCN(C(=O)CC#N)CC5)c4)cc3c2)c1C` [P-2189, N-[2-[2-[4-(2-cyanoacetyl)piperazin-1-yl]-4-pyridyl]-1H-pyrrolo[2,3-b]pyridin-5-yl]-3,4-dimethyl-1H-pyrazole-5-carboxamide], the IC50 was in the range of 0.0001 to 1 µM.

The molecule `Cc1n[nH]c(C(=O)Nc2cnc3[nH]c(-c4ccc(F)cc4OC(F)F)cc3c2)c1C` [P-2268, N-[2-[2-(difluoromethoxy)-4-fluoro-phenyl]-1H-pyrrolo[2,3-b]pyridin-5-yl]-3,4-dimethyl-1H-pyrazole-5-carboxamide] registered an IC50 of 0.0001 to 1 µM.

Regarding `Cc1n[nH]c(C(=O)Nc2cnc3[nH]c(-c4cncc(C#N)c4)cc3c2)c1C` [P-2270, N-[2-(5-cyano-3-pyridyl)-1H-pyrrolo[2,3-b]pyridin-5-yl]-3,4-dimethyl-1H-pyrazole-5-carboxamide], the IC50 lay in the range of 0.0001 to 1 µM.

`Cc1n[nH]c(C(=O)Nc2cnc3[nH]c(C4=CCOCC4)cc3c2)c1C` [P-2271, N-[2-(3,6-dihydro-2H-pyran-4-yl)-1H-pyrrolo[2,3-b]pyridin-5-yl]-3,4-dimethyl-1H-pyrazole-5-carboxamide] displayed an IC50 of 0.0001 to 1 µM.

Regarding `Cc1n[nH]c(C(=O)Nc2cnc3[nH]c(-c4cnccc4C(N)=O)cc3c2)c1C` [P-2272, 3-[5-[(3,4-dimethyl-1H-pyrazole-5-carbonyl)amino]-1H-pyrrolo[2,3-b]pyridin-2-yl]pyridine-4-carboxamide], the IC50 lay in the range of 0.0001 to 1 µM.

Consider `Cc1n[nH]c(C(=O)Nc2cnc3[nH]c(-c4cccc5c4OCC5)cc3c2)c1C` [P-2273, N-[2-(2,3-dihydrobenzofuran-7-yl)-1H-pyrrolo[2,3-b]pyridin-5-yl]-3,4-dimethyl-H-pyrazole-5-carboxamide], for which the IC50 lay in the range of 0.0001 to 1 µM.

For the molecule `Cc1n[nH]c(C(=O)Nc2cnc3[nH]c(-c4cccc(N5CCNCC5)c4)cc3c2)c1C` [P-2274, 3,4-dimethyl-N-[2-(3-piperazin-1-ylphenyl)-1H-pyrrolo[2,3-b]pyridin-5-yl]-1H-pyrazole-5-carboxamide], the IC50 is 0.0001 to 1 µM.

The molecule `Cc1cc(Cl)ccc1-c1cc2cc(NC(=O)c3[nH]nc(C)c3C)cnc2[nH]1` [P-2277, N-[2-(4-chloro-2-methyl-phenyl)-1H-pyrrolo[2,3-b]pyridin-5-yl]-3,4-dimethyl-1H-pyrazole-5-carboxamide] displayed an IC50 of 0.0001 to 1 µM.

In turn, `Cc1n[nH]c(C(=O)Nc2cnc3[nH]c(-c4ccncc4Cl)cc3c2)c1C` [P-2278, N-[2-(3-chloro-4-pyridyl)-H-pyrrolo[2,3-b]pyridin-5-yl]-3,4-dimethyl-1H-pyrazole-5-carboxamide] returned an IC50 of 0.0001 to 1 µM.

As to `Cc1n[nH]c(C(=O)Nc2cnc3[nH]c(-c4ccc(F)nc4F)cc3c2)c1C` [P-2280, N-[2-(2,6-difluoro-3-pyridyl)-1H-pyrrolo[2,3-b]pyridin-5-yl]-3,4-dimethyl-1H-pyrazole-5-carboxamide], the IC50 is 0.0001 to 1 µM.

`Cc1n[nH]c(C(=O)Nc2cnc3[nH]c(-c4cccc5c4OC(F)(F)O5)cc3c2)c1C` [P-2281, N-[2-(2,2-difluoro-1,3-benzodioxol-4-yl)-1H-pyrrolo[2,3-b]pyridin-5-yl]-3,4-dimethyl-1H-pyrazole-5-carboxamide]: the IC50 was in the range of 0.0001 to 1 µM.

The molecule `Cc1cc(-c2cc3cc(NC(=O)c4[nH]nc(C)c4C)cnc3[nH]2)cnc1C` [P-2282, N-[2-(5,6-dimethyl-3-pyridyl)-1H-pyrrolo[2,3-b]pyridin-5-yl]-3,4-dimethyl-1H-pyrazole-5-carboxamide] displayed an IC50 of 0.0001 to 1 µM.

Consider `COc1ccc(-c2cc3cc(NC(=O)c4[nH]nc(C)c4C)cnc3[nH]2)c(C)c1C` [P-2284, N-[2-(4-methoxy-2,3-dimethyl-phenyl)-1H-pyrrolo[2,3-b]pyridin-5-yl]-3,4-dimethyl-1H-pyrazole-5-carboxamide], for which the IC50 lay within 0.0001 to 1 µM.
